Data: publication PMC7419507, “In vitro Cas9-assisted editing of modular polyketide synthase genes to produce desired natural product derivatives” (Nature Communications, 2020)
Where “and” joins values, the source holds several entries; their conditions need not be identical. Identical values can stand only once.

Columns and labels:
Format in all cases: cell-based
[1] = system: human ovarian adenocarcinoma SKOV-3 cells; assay: Cytotoxicity assay (CellTiter-Glo, 72 h), SKOV-3; conditions: raw replicate data
Description: (§1) Jurkat cells were cultured in RPMI1640 medium supplemented with 10% foetal bovine serum, penicillin (50 U/ml), streptomycin (50 μg/ml), and Glutamax. SKOV-3 cells were cultured in DMEM medium supplemented with 10% fetal bovine serum, penicillin (50 U/ml), and streptomycin (50 μg/ml). MESO-1 cells were cultured in RPMI1640 medium supplemented with 10% fetal bovine serum, penicillin (50 U/ml), and streptomycin (50 μg/ml). All cell lines were seeded in a 384-well plate at a density of 1000 cells/well in 20 μl of media and incubated at 37 °C in a humidified incubator with 5% CO2. After 4 h, 2-fold dilution samples resolved in DMSO were added to the cell culture at the concentration of 0.5% (0.1 μl) and incubated for 72 h. Cell viabilities were measured using a CellTiter-Glo luminescent cell viability assay and EnVision multilabel plate reader.

[2] = system: Jurkat, SKOV-3 and MESO-1 cells; assay: Cytotoxicity assay, statements for all tested cell lines together; conditions: against the tested cell lines (Jurkat, SKOV-3, MESO-1)
Description: as §1

FKBP12 and mTOR = molecular target: T1, FKBP12 and mTOR (Homo sapiens, UniProt P42345+P62942); assay: Fluoppi analysis: induction of FKBP12-mTOR complex formation in transfected HeLa cells; conditions: for Foci intensity: raw data, one replicate per line
T1 construct: host or cells: HeLa cells
T1 sequence (P42345 2025-2114 limits assumed): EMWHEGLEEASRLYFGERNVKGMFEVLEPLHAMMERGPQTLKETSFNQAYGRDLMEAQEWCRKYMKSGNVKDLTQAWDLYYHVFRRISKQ
T1 sequence (P62942 whole entry): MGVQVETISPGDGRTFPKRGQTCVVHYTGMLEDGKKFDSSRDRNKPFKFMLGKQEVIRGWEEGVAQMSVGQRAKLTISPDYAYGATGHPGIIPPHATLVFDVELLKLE
Description: Fluoppi harbours a tetrameric fluorescent protein hAG tag and an oligomeric assembly helper Ash tag to create detectable fluorescent foci in cells when there are interactions between two proteins fused to each tag[32].
HeLa cells were maintained in DMEM (Fujifilm Wako, Osaka, Japan) supplemented with 10% FBS (Thermo Fisher Scientific, MA, USA) and 1% of Penicillin-Streptomycin (Thermo Fisher Scientific) in a humidified incubator with 5% CO2 at 37 °C. Harvested cells were plated at 1 × 10^6 cells/well in 6-well plate and incubated for 6 h. Then each 1.25 µg of phAG-mTOR and pAsh-FKBP12 (Medical and Biological Laboratories Co., Ltd., Aichi, Japan) was co-transfected with Lipofectamine 2000 reagent (Thermo Fisher Scientific) overnight. Next day, transfected cells were harvested and seeded in 384-well optical-bottom microplate (PerkinElmer, MA, USA) at a density of 3000 cells/well. After the 24 h incubation at 37 °C, cells were treated with different concentrations of compounds for 1 h. Cells were then fixed with 4% paraformaldehyde and stained with 1 µg/ml of Hoechst33342 (Thermo Fisher Scientific). Cell images of 9 visual fields/well were acquired with ×20 objective lens in Opera Phenix High-Content Screening System (PerkinElmer) and analysed by Harmony4.9 software (PerkinElmer). Because protein-protein interactions are quantified by measuring the aggregation of fluorescent elements in foci, fluorescent intensity in foci was normalised by total fluorescent intensity in each cell. EC50 values were calculated using TIBCO Spotfire 10.3 software (PerkinElmer).

[3] = system: malignant pleural mesothelioma MESO-1 cells; assay: Cytotoxicity assay (CellTiter-Glo, 72 h), MESO-1; conditions: raw replicate data
Description: as §1

T lymphoma Jurkat cells = assay: Cytotoxicity assay (CellTiter-Glo, 72 h), Jurkat; conditions: raw data (replicates)
Description: as §1

Foci intensity (FKBP12 and mTOR; conc 9.53674e-5 uM): 0.02286 and 0.01106 and 0.01492
Foci intensity (FKBP12 and mTOR; conc 0.000190735 uM): 0.009983 and 0.01574 and 0.02887
Foci intensity (FKBP12 and mTOR; conc 0.00038147 uM): 0.01899 and 0.01621 and 0.01221
Foci intensity (FKBP12 and mTOR; conc 0.000762939 uM): 0.002009 and 0.003868 and 0.01862
Foci intensity (FKBP12 and mTOR; conc 0.00152588 uM): 0.02126 and 0.01678 and 0.003092
Foci intensity (FKBP12 and mTOR; conc 0.00305176 uM): 0.0138 and 0.01691 and 0.01576
Foci intensity (FKBP12 and mTOR; conc 0.00610352 uM): 0.03172 and 0.01801 and 0.0222
Foci intensity (FKBP12 and mTOR; conc 0.012207 uM): 0.01093 and 0.01362 and 0.01381
Foci intensity (FKBP12 and mTOR; conc 0.0244141 uM): 0.01964 and 0.01491 and 0.01835
Foci intensity (FKBP12 and mTOR; conc 0.0488281 uM): 0.004003 and 0.01339 and 0.01507
Foci intensity (FKBP12 and mTOR; conc 0.0976562 uM): 0.01375 and 0.009337 and 0.02775
Foci intensity (FKBP12 and mTOR; conc 0.195312 uM): 0.0177 and 0.02519 and 0.008414
Foci intensity (FKBP12 and mTOR; conc 0.390625 uM): 0.01709 and 0.006803 and 0.01525
Foci intensity (FKBP12 and mTOR; conc 0.78125 uM): 0.01284 and 0.02644 and 0.03084
Foci intensity (FKBP12 and mTOR; conc 1.5625 uM): 0.02173 and 0.02485 and 0.03636
Foci intensity (FKBP12 and mTOR; conc 3.125 uM): 0.02309 and 0.03313 and 0.02928
Foci intensity (FKBP12 and mTOR; conc 6.25 uM): 0.01525 and 0.02728 and 0.02945
Foci intensity (FKBP12 and mTOR; conc 12.5 uM): 0.02884 and 0.0389 and 0.01245
Foci intensity (FKBP12 and mTOR; conc 25 uM): 0.03878 and 0.02312 and 0.004037
Foci intensity (FKBP12 and mTOR; conc 50 uM): 0.02187 and 0.0201 and 0.02169
Structure (SMILES): COC1CC2CCC(C)C(O)(O2)C(=O)C(=O)N2CCCCC2C(=O)OC(C(C)CC2CCC(O)C(OC)C2)CC(O)CC(=O)C(C)CC(C)C=CC=CC=C1C (stereo not shown) [Compound 11]
SKOV3 viability (%) ([1]; conc 9.53674e-5 uM): 103.0% and 111.8% and 102.7%
SKOV3 viability (%) ([1]; conc 0.000190735 uM): 100.4% and 96.2% and 95.8%
SKOV3 viability (%) ([1]; conc 0.00038147 uM): 103.1% and 104.5% and 105.0%
SKOV3 viability (%) ([1]; conc 0.000762939 uM): 97.9% and 100.1% and 100.0%
SKOV3 viability (%) ([1]; conc 0.00152588 uM): 106.4% and 105.2% and 101.9%
SKOV3 viability (%) ([1]; conc 0.00305176 uM): 98.6% and 97.0% and 99.4%
SKOV3 viability (%) ([1]; conc 0.00610352 uM): 109.3% and 103.3% and 106.5%
SKOV3 viability (%) ([1]; conc 0.012207 uM): 99.6% and 97.7% and 101.2%
SKOV3 viability (%) ([1]; conc 0.0244141 uM): 103.3% and 106.1% and 104.6%
SKOV3 viability (%) ([1]; conc 0.0488281 uM): 98.5% and 100.3% and 98.3%
SKOV3 viability (%) ([1]; conc 0.0976562 uM): 105.4% and 104.9% and 104.3%
SKOV3 viability (%) ([1]; conc 0.195312 uM): 95.0% and 97.7% and 100.1%
SKOV3 viability (%) ([1]; conc 0.390625 uM): 104.0% and 107.6% and 105.3%
SKOV3 viability (%) ([1]; conc 0.78125 uM): 100.0% and 99.8% and 98.6%
SKOV3 viability (%) ([1]; conc 1.5625 uM): 98.3% and 102.6% and 98.7%
SKOV3 viability (%) ([1]; conc 3.125 uM): 98.0% and 99.6% and 88.9%
SKOV3 viability (%) ([1]; conc 6.25 uM): 95.1% and 93.6% and 91.3%
SKOV3 viability (%) ([1]; conc 12.5 uM): 92.5% and 90.6% and 91.1%
SKOV3 viability (%) ([1]; conc 25 uM): 91.0% and 92.9% and 94.1%
SKOV3 viability (%) ([1]; conc 50 uM): 83.8% and 79.2% and 82.0%
Concentration at which cytotoxic activities were shown [2]: over 10 µM
PPI-inducing (binding enhancing) activity between FKBP12 and mTOR compared with rapamycin (1), in words (FKBP12 and mTOR; Fluoppi): completely lost the ability to induce the formation of FKBP12-mTOR complex
MESO1 viability (%) ([3]; conc 9.53674e-5 uM): 103.9% and 103.5% and 98.5%
MESO1 viability (%) ([3]; conc 0.000190735 uM): 96.6% and 99.4% and 97.9%
MESO1 viability (%) ([3]; conc 0.00038147 uM): 98.3% and 99.6% and 101.3%
MESO1 viability (%) ([3]; conc 0.000762939 uM): 105.2% and 96.5% and 100.7%
MESO1 viability (%) ([3]; conc 0.00152588 uM): 101.4% and 100.3% and 96.4%
MESO1 viability (%) ([3]; conc 0.00305176 uM): 100.9% and 90.0% and 104.4%
MESO1 viability (%) ([3]; conc 0.00610352 uM): 103.9% and 99.7% and 97.3%
MESO1 viability (%) ([3]; conc 0.012207 uM): 100.4% and 97.8% and 98.7%
MESO1 viability (%) ([3]; conc 0.0244141 uM): 97.0% and 101.2% and 106.3%
MESO1 viability (%) ([3]; conc 0.0488281 uM): 98.5% and 98.3% and 96.0%
MESO1 viability (%) ([3]; conc 0.0976562 uM): 105.6% and 104.1% and 98.8%
MESO1 viability (%) ([3]; conc 0.195312 uM): 98.6% and 98.7% and 91.4%
MESO1 viability (%) ([3]; conc 0.390625 uM): 103.9% and 97.5% and 98.1%
MESO1 viability (%) ([3]; conc 0.78125 uM): 94.8% and 90.3% and 84.8%
MESO1 viability (%) ([3]; conc 1.5625 uM): 93.0% and 93.7% and 91.6%
MESO1 viability (%) ([3]; conc 3.125 uM): 84.8% and 80.8% and 88.7%
MESO1 viability (%) ([3]; conc 6.25 uM): 89.0% and 88.1% and 84.7%
MESO1 viability (%) ([3]; conc 12.5 uM): 82.3% and 77.8% and 85.2%
MESO1 viability (%) ([3]; conc 25 uM): 76.7% and 80.1% and 74.6%
MESO1 viability (%) ([3]; conc 50 uM): 57.9% and 55.6% and 52.8%
Jurkat viability (%) (T lymphoma Jurkat cells; conc 9.53674e-5 uM): 99.6% and 105.7% and 104.8%
Jurkat viability (%) (T lymphoma Jurkat cells; conc 0.000190735 uM): 102.5% and 104.1% and 102.4%
Jurkat viability (%) (T lymphoma Jurkat cells; conc 0.00038147 uM): 103.5% and 109.4% and 98.8%
Jurkat viability (%) (T lymphoma Jurkat cells; conc 0.000762939 uM): 99.9% and 101.1% and 97.3%
Jurkat viability (%) (T lymphoma Jurkat cells; conc 0.00152588 uM): 100.9% and 100.4% and 103.9%
Jurkat viability (%) (T lymphoma Jurkat cells; conc 0.00305176 uM): 102.0% and 103.4% and 101.1%
Jurkat viability (%) (T lymphoma Jurkat cells; conc 0.00610352 uM): 100.0% and 104.2% and 103.2%
Jurkat viability (%) (T lymphoma Jurkat cells; conc 0.012207 uM): 106.8% and 106.3% and 106.1%
Jurkat viability (%) (T lymphoma Jurkat cells; conc 0.0244141 uM): 104.8% and 107.2% and 106.6%
Jurkat viability (%) (T lymphoma Jurkat cells; conc 0.0488281 uM): 97.2% and 96.3% and 106.5%
Jurkat viability (%) (T lymphoma Jurkat cells; conc 0.0976562 uM): 106.1% and 104.1% and 111.0%
Jurkat viability (%) (T lymphoma Jurkat cells; conc 0.195312 uM): 100.5% and 100.4% and 103.3%
Jurkat viability (%) (T lymphoma Jurkat cells; conc 0.390625 uM): 100.9% and 100.4% and 105.6%
Jurkat viability (%) (T lymphoma Jurkat cells; conc 0.78125 uM): 94.7% and 91.5% and 97.0%
Jurkat viability (%) (T lymphoma Jurkat cells; conc 1.5625 uM): 93.8% and 86.6% and 86.2%
Jurkat viability (%) (T lymphoma Jurkat cells; conc 3.125 uM): 76.9% and 80.2% and 77.8%
Jurkat viability (%) (T lymphoma Jurkat cells; conc 6.25 uM): 68.8% and 66.4% and 70.4%
Jurkat viability (%) (T lymphoma Jurkat cells; conc 12.5 uM): 58.6% and 56.1% and 57.5%
Jurkat viability (%) (T lymphoma Jurkat cells; conc 25 uM): 45.9% and 41.4% and 49.3%
Jurkat viability (%) (T lymphoma Jurkat cells; conc 50 uM): 12.3% and 11.6% and 15.7%
